Data published in patent publication US7855215B2, “Cyclic diaryl ureas suitable as tyrosine kinase inhibitors” (Novartis AG, priority 2004, dated 2010).

| melting point [°C] | Structure (SMILES) |
| --- | --- |
| 163 | CN1CCN(CCCNc2cc(Oc3ccc4c(c3)CCN4C(=O)Nc3cccc(C(F)(F)F)c3)ncn2)CC1 [Example 18, 5-{6-[3-(4-Methylpiperazin-1-yl)-propylamino]-pyrimidin-4-yloxy}-2,3-dihydro-indole-1-carboxylic acid (3-trifluormethyl-phenyl)-amide] |
| 120 to 123 | CN1CCN(Cc2ccc(NC(=O)N3CCCc4cc(Oc5ccnc(N)n5)ccc43)cc2C(F)(F)F)CC1 [Example 33, 6-(2-Amino-pyrimidin-4-yloxy)-3,4-dihydro-2H-quinoline-1-carboxylic acid [4-(4-methyl-piperazin-1-ylmethyl)-3-trifluoromethyl-phenyl]-amide] |
| 193 to 197 | CC(C)(CCC(=O)Nc1cc(Oc2ccc3c(c2)CCN3C(=O)Nc2ccc(N3CCOCC3)c(C(F)(F)F)c2)ncn1)[N+](=O)[O-] [Example 38] |
| 211 to 214 | CC(C)(N)CCC(=O)Nc1cc(Oc2ccc3c(c2)CCN3C(=O)Nc2ccc(N3CCOCC3)c(C(F)(F)F)c2)ncn1 [Example 39] |
| 253 to 258 | O=C(Nc1cc(Oc2ccc3c(c2)CCN3C(=O)Nc2ccc(N3CCOCC3)c(C(F)(F)F)c2)ncn1)c1cccnc1 [Example 40] |
| 206 to 209 | COC(=O)Nc1cc(Oc2ccc3c(c2)CCN3C(=O)Nc2ccc(N3CCOCC3)c(C(F)(F)F)c2)ncn1 [Example 41] |
| 175 to 177 | CN1CCN(C(=O)Nc2cc(Oc3ccc4c(c3)CCN4C(=O)Nc3ccc(N4CCOCC4)c(C(F)(F)F)c3)ncn2)CC1 [Example 42] |

Continued, compound first:

| Structure (SMILES) | melting point [°C] |
| --- | --- |
| CNc1cc(Oc2ccc3c(c2)CCCN3C(=O)Nc2ccc(C(C)(C)C)cc2)ncn1 [Example 3, 6-(6-Methylamino-pyrimidin-4-yloxy)-3,4-dihydro-2H-quinoline-1-carboxylic acid (4-tert.butyl-phenyl)-amide] | 175 to 176 |
| Nc1nc(Cl)cc(Oc2ccc3c(c2)CCCCN3C(=O)Nc2cccc(C(F)(F)F)c2)n1 [Example 6, 7-(2-Amino-6-chloro-pyrimidin-4-yloxy)-2,3,4,5-tetrahydro-benzo[b]azepine-1-carboxylic acid (3-trifluoromethyl-phenyl)-amide] | 175 |
| Nc1nccc(Oc2ccc3c(c2)CCCCN3C(=O)Nc2cccc(C(F)(F)F)c2)n1 [Example 7, 7-(2-Amino-pyrimidin-4-yloxy)-2,3,4,5-tetrahydro-benzo[b]azepine-1-carboxylic acid (3-trifluoromethyl-phenyl)-amide] | 207 |
| O=C(Nc1cccc(C(F)(F)F)c1)N1CCCCc2cc(Oc3cc(Cl)ncn3)ccc21 [Example 8, 7-(6-Chloro-pyrimidin-4-yloxy)-2,3,4,5-tetrahydro-benzo[b]azepine-1-carboxylic acid (3-trifluoromethyl-phenyl)-amide] | 120 |
| CC(C)Nc1cc(Oc2ccc3c(c2)CCN3C(=O)Nc2cccc(C(F)(F)F)c2)ncn1 [Example 19, 5-(6-Isopropylamino-pyrimidin-4-yloxy)-2,3-dihydro-indole-1-carboxylic acid (3-trifluormethyl-phenyl)-amide] | 189 |
| O=C(Nc1ccccc1)c1cc(Oc2ccc3c(c2)CCN3C(=O)Nc2cccc(C(F)(F)F)c2)ncn1 [Example 74, 5-(6-Phenylcarbamoyl-pyrimidin-4-yloxy)-2,3-dihydro-indole-1-carboxylic acid (3-trifluoromethyl-phenyl)-amide] | 227 to 229 |
